Laboratory results published in US20260055154A1, “LONG-ACTING DUAL-AGONIST COMPOUND” (CHENGDU AODA BIOTECHNOLOGY CO., LTD, priority 2022, published 2026).
Read-outs that look alike come from different tables or passages of the source. Starred links: 1 amine or outer side, 2 acyl side, 3 side chain; linkers in the order of their positions; H or OH if unused. Non-standard residues stand in square brackets, D forms with d. Residues, ends and D or L forms follow the SMILES beside them. Groups on a side chain read outwards from the residue. No end group written: not given here. *: point of attachment. X1 = O=C(O)CCCCCCCCCCCCCCCCCCC(=O)N[C@@H](CCC(=O)NCCOCCOCCOCCOCCOCC(=O)*)C(=O)O; C20 diacid = O=C(O)CCCCCCCCCCCCCCCCCCC(=O)*; γGlu = O=C(O)[C@H](CCC(=O)[*:2])N[*:1]; AEEA = NCCOCCOCC(=O)O; Aib = CC(C)(N)C(=O)O

Key:
GcgR = biological target: T1, GcgR (Homo sapiens, UniProt P47871); experiment: Gcg activity determination (cAMP, chemiluminescence, stable cell line); format: cell-based; conditions: CHO-K1 cell line stably expressing GcgR; OXM3 as reference
T1 construct: expressed in transfected cells; host or cells: CHO-K1
T1 sequence (P47871 26-477, species assumed): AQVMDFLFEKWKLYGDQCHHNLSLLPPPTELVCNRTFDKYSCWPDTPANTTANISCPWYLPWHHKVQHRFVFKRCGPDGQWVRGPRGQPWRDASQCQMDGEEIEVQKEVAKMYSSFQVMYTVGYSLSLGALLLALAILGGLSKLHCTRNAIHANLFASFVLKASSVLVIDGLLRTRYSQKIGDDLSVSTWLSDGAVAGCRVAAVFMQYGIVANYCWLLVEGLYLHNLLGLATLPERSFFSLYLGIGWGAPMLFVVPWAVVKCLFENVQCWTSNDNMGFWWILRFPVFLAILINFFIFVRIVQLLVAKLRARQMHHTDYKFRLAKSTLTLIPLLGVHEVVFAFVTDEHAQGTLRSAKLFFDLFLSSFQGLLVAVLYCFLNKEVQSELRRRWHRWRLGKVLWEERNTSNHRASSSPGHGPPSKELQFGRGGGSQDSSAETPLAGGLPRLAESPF
Protocol: (§1) GcgR activates the intracellular adenylate cyclase pathway under the stimulation of its specific agonist, to increase the cAMP level and ultimately lead to the production and release of insulin. The stably cell line expressing GcgR was stimulated by the test substance to rapidly increase the intracellular cAMP level. The relative light units (RLU) in the cells after the stimulation by each dose of agonists were determined by the chemiluminescence method, and then the EC50 of the agonist was calculated. This activity determination method is currently a common determination method for Geg receptor agonist activity at home and abroad.
A CHO-K1 cell line stably expressing GcgR was adopted. The cells were stimulated with different concentrations of agonists, and the relative light units (RLU) after the stimulation of cells by each dose of agonists were determined. Using OXM3 as a reference, the relative biological activity of the agonist was obtained.

in vivo [1] = experiment: in vivo; parameters: species or system cynomolgus monkeys; conditions: male, cynomolgus monkey, sc, 0.2 mg/kg
Protocol: The experimental animals were cynomolgus monkeys, and two male cynomolgus monkeys in each group were subcutaneously administrated the compound at a dose of 0.2 mg/kg. The venous blood samples were collected before drug administration (0 h), and 1 h, 2 h, 3 h, 4 h, 8 h, 12 h, 18 h, 24 h, 48 h, 96 h, 144 h and 168 h after administration, respectively. The plasma samples were separated by centrifugation. The blood drug concentrations of the corresponding compounds in the plasma samples were determined by liquid chromatography-mass spectrometry.

in vivo [2] = conditions: human
GLP-1R = biological target: T2, GLP-1R (Homo sapiens, UniProt P43220); experiment: Determination of GLP-1 activity (cAMP, chemiluminescence, stable cell line); format: cell-based; conditions: CHO-K1 cell line stably expressing GLP-1R; OXM3 as reference substance
T2 construct: expressed in transfected cells; host or cells: CHO-K1
T2 sequence (P43220 24-463, species assumed): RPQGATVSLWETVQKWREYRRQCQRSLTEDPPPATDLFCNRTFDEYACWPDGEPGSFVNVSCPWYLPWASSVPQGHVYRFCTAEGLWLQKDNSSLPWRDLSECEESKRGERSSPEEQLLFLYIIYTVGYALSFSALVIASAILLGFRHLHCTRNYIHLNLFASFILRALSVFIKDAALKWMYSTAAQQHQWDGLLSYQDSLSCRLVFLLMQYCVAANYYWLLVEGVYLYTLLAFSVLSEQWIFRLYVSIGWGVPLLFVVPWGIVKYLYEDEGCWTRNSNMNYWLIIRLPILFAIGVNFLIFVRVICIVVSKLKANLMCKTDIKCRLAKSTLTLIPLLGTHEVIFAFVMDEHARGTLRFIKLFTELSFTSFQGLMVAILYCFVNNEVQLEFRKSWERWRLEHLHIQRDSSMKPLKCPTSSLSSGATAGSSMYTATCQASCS
Protocol: as §1, with “GLP-1R” for “GcgR”, “stable” for “stably”, “after” for “after the”, “the test substance” for “agonists”, “GLP-1” for “Geg”
A CHO-K1 cell line that stably expresses GLP-IR was adopted, and the cells were stimulated with different concentrations of agonists. The relative light units after stimulation of the cells by each dose of agonists were measured. Using OXM3 as a reference substance, the relative biological activity of each agonist was obtained.

[3] = human, in vivo; cited from earlier work

Compound | Biological activity (%) (GcgR) | half-life (in vivo [1]) | half-life (in vivo [2]) | Relative biological activity (GLP-1R) | half-life [3]
CC(C)C[C@H](NC(=O)[C@H](CC(C)C)NC(=O)[C@H](Cc1c[nH]c2ccccc12)NC(=O)[C@H](CCC(=O)O)NC(=O)[C@@H](NC(=O)[C@H](Cc1ccccc1)NC(=O)[C@H](CCC(=O)O)NC(=O)[C@H](CCCCNC(=O)COCCOCCOCCOCCOCCNC(=O)CC[C@H](NC(=O)CCCCCCCCCCCCCCCCCCC(=O)O)C(=O)O)NC(=O)[C@H](C)NC(=O)[C@H](CCCCN)NC(=O)[C@H](CCCCN)NC(=O)[C@H](CCC(=O)O)NC(=O)[C@H](CC(=O)O)NC(=O)[C@H](CC(C)C)NC(=O)[C@H](Cc1ccc(O)cc1)NC(=O)[C@H](CCCCN)NC(=O)[C@H](CO)NC(=O)[C@H](Cc1ccc(O)cc1)NC(=O)[C@H](CC(=O)O)NC(=O)[C@H](CO)NC(=O)[C@@H](NC(=O)[C@H](Cc1ccccc1)NC(=O)[C@@H](NC(=O)CNC(=O)[C@H](CCC(N)=O)NC(=O)C(C)(C)NC(=O)[C@@H](N)Cc1c[nH]cn1)[C@@H](C)O)[C@@H](C)O)C(C)C)C(=O)N[C@@H](CCC(=O)O)C(=O)NCC(=O)NCC(=O)N1CCC[C@H]1C(=O)N[C@@H](CO)C(=O)N[C@@H](CO)C(=O)NCC(=O)N[C@@H](C)C(=O)N1CCC[C@H]1C(=O)N1CCC[C@H]1C(=O)N1CCC[C@H]1C(=O)N[C@@H](CO)C(N)=O [Compound 2, His-Aib-Gln-Gly-Thr-Phe-Thr-Ser-Asp-Tyr-Ser-Lys-Tyr-Leu-Asp-Glu-Lys-Lys-Ala-Lys(PEG5CH2CO-γGlu-eicosanedioic acid)-Glu-Phe-Val-Glu-Trp-Leu-Leu-Glu-Gly-Gly-Pro-Ser-Ser-Gly-Ala-Pro-Pro-Pro-Ser-NH2] (H-H[Aib]QGTFTSDYSKYLDEKKAK(X1)EFVEWLLEGGPSSGAPPPS-NH2) | 86.9% | 5.84 days | ~11.7 days | 259.9% | –
His-Aib-Gln-Gly-Thr-Phe-Thr-Ser-Asp-Tyr-Ser-Lys-Tyr-Leu-Asp-Glu-Lys-Lys-Ala-Lys(AEEA-AEEA-γGlu-eicosanedioic acid)-Glu-Phe-Val-Glu-Trp-Leu-Leu-Glu-Gly-Gly-Pro-Ser-Ser-Gly-NH2 (H[Aib]QGTFTSDYSKYLDEKKAK([AEEA-AEEA-γGlu-C20 diacid])EFVEWLLEGGPSSG-NH2) [OXM3] | – | – | – | – | 120 h
